Results published in patent US8859580B2 (Boehringer Ingelheim International GmbH, priority 2007, dated 2014).

What follows are compounds tested against T1, 11β-HSD1 (Homo sapiens, UniProt P28845) (assay: In vitro inhibition of 11β-HSD1, HTRF detection of cortisol generated from cortisone by human liver microsomes). Details: 11β-HSD IC50 (nM), 1 hour at 37° C., pH 6.0, NADPH 200 μM, cortisone 80 nM, inhibition relative to carbenoxolone signal.
T1 construct: detecting cortisol generated from cortisterone by human liver microsomes; from tissue; host or cells: human liver microsomes
Type: biochemical
Procedure, shortened: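 Cortisol formed from cortisone by human liver microsomes quantified by competitive HTRF immunoassay (XL665-cortisol, Eu-cryptate anti-cortisol antibody), 2 h detection, Em665/Em615 ratio converted via cortisol calibration curve. Percent inhibition relative to carbenoxolone signal; IC50 from curves.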

T1 sequence (P28845 whole entry): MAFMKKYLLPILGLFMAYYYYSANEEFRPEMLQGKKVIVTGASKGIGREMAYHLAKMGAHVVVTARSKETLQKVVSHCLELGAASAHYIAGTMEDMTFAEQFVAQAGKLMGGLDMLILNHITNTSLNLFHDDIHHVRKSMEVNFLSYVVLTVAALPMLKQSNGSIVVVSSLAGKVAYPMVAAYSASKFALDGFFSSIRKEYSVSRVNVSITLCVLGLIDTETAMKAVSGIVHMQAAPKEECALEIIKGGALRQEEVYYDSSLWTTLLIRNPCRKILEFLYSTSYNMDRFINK

First: CC1(C)[C@H]2Cc3ccccc3[C@]1(C)CCN2C(=O)c1ccc(N)c(Cl)c1 [Example 295, (4-Amino-3-chloro-phenyl)-[(2R,6S)-6,11,11-trimethyl-1,2,5,6-tetrahydro-4H-2,6-methano-benzo[d]azocin-3-yl]-methanone]
Second: CC1(C)[C@H]2Cc3c(O)cccc3[C@]1(C)CCN2C(=O)c1ccccc1Cl [Example 2, (2-Chloro-phenyl)-[(2R,6S)-10-hydroxy-6,11,11-trimethyl-1,2,5,6-tetrahydro-4H-2,6-methano-benzo[d]azocin-3-yl]-methanone]
The IC50 of the first is 21-fold lower: 35 nM for the first, 741 nM for the second. The first is the more potent here.

Going from `COc1cc2c(cc1O)C1(C)CCN(C(=O)c3ccc4nc[nH]c4c3)C(C2)C1(C)C` (stereo not drawn) [Example 73, (3H-Benzoimidazol-5-yl)-(8-hydroxy-9-methoxy-6,11,11-trimethyl-1,2,5,6-tetrahydro-4H-2,6-methano-benzo[d]azocin-3-yl)-methanone] to `COc1cc2c(cc1O)CC1N(C(=O)c3ccc4nc[nH]c4c3)CCC2(C)C1(C)C` (stereo not drawn) [Example 71, (3H-Benzoimidazol-5-yl)-(9-hydroxy-8-methoxy-6,11,11-trimethyl-1,2,5,6-tetrahydro-4H-2,6-methano-benzo[d]azocin-3-yl)-methanone], the IC50 falls from 88 nM to 47 nM (1.9-fold).

Going from `O=C(c1ccc2nc[nH]c2c1)N1CCC2(c3ccccc3)CC1Cc1ccccc12` (stereo not drawn) [Example 148, (3H-Benzoimidazol-5-yl)-(6-phenyl-1,2,5,6-tetrahydro-4H-2,6-methano-benzo[d]azocin-3-yl)-methanone] to `O=C(c1ccc2nc[nH]c2c1)N1CCC2(C(=O)O)CC1Cc1ccc(O)cc12` (stereo not drawn) [Example 213, 3-(3H-Benzoimidazole-5-carbonyl)-8-hydroxy-2,3,4,5-tetrahydro-1H-2,6-methano-benzo[d]azocine-6-carboxylic acid], the IC50 rises from 556 nM to 2970 nM (5.3-fold).

Compared with `CC12CCN(C(=O)c3ccc4nc[nH]c4c3)C(Cc3cc(N)ccc31)C2(C)C` (stereo not drawn) [Example 141, (9-Amino-6,11,11-trimethyl-1,2,5,6-tetrahydro-4H-2,6-methano-benzo[d]azocin-3-yl)-(3H-benzoimidazol-5-yl)-methanone], `CC12CCN(C(=O)c3ccc4nc[nH]c4c3)C(Cc3cc(C(N)=O)ccc31)C2(C)C` (stereo not drawn) [Example 163, 3-(3H-Benzoimidazole-5-carbonyl)-6,11,11-trimethyl-1,2,3,4,5,6-hexahydro-2,6-methano-benzo[d]azocine-9-carboxylic acid amide] is 4.2-fold higher in IC50: 59 nM for the first, 249 nM for the second. The first is the more potent here.

Compared with `CC1(C)[C@H]2Cc3ccccc3[C@]1(C)CCN2C(=O)c1cccc2ccccc12` [Example 284, Naphthalen-1-yl-[(2R,6S)-6,11,11-trimethyl-1,2,5,6-tetrahydro-4H-2,6-methano-benzo[d]azocin-3-yl]-methanone], `CC1(C)[C@H]2Cc3c(O)cccc3[C@]1(C)CCN2C(=O)c1cc2ccccc2[nH]1` [Example 116, [(2R,6S)-10-Hydroxy-6,11,11-trimethyl-1,2,5,6-tetrahydro-4H-2,6-methano-benzo[d]azocin-3-yl]-(1H-indol-2-yl)-methanone] is 5.8-fold higher in IC50: 666 nM for the first, 3850 nM for the second. The first is the more potent here.

Compared with `CNC(=O)c1ccc2c(c1)CC1N(C(=O)c3ccc4nc[nH]c4c3)CCC2(C)C1(C)C` (stereo not drawn) [Example 162, 3-(3H-Benzoimidazole-5-carbonyl)-6,11,11-trimethyl-1,2,3,4,5,6-hexahydro-2,6-methano-benzo[d]azocine-9-carboxylic acid methylamide], `CC(=O)c1ccc2c(c1)C[C@H]1N(C(=O)c3ccc4nc[nH]c4c3)CC[C@]2(C)C1(C)C` [Example 205, 1-[(2R,6S)-3-(3H-Benzoimidazole-5-carbonyl)-6,11,11-trimethyl-1,2,3,4,5,6-hexahydro-2,6-methano-benzo[d]azocin-9-ayl]-ethanone] is 29-fold lower in IC50: 1090 nM for the first, 38 nM for the second.

Compared with `Cc1cccc(C(=O)N2CC[C@@]3(C)c4cccc(O)c4C[C@@H]2C3(C)C)c1` [Example 7, [(2R,6S)-10-Hydroxy-6,11,11-trimethyl-1,2,5,6-tetrahydro-4H-2,6-methano-benzo[d]azocin-3-yl]-m-tolyl-methanone], `CC1(C)[C@H]2Cc3c(O)cccc3[C@]1(C)CCN2C(=O)c1ccc2cc[nH]c2c1` [Example 31, [(2R,6S)-10-Hydroxy-6,11,11-trimethyl-1,2,5,6-tetrahydro-4H-2,6-methano-benzo[d]azocin-3-yl]-(1H-indol-6-yl)-methanone] is 3-fold lower in IC50: 262 nM for the first, 88 nM for the second.

`CC1(C)[C@H]2Cc3c(O)cccc3[C@]1(C)CCN2C(=O)c1ccncc1` [Example 126, [(2R,6S)-10-Hydroxy-6,11,11-trimethyl-1,2,5,6-tetrahydro-4H-2,6-methano-benzo[d]azocin-3-yl]-pyridin-4-yl-methanone] and `C#Cc1cc(C(=O)N2CC[C@@]3(C)c4cccc(O)c4C[C@@H]2C3(C)C)ccc1C(=O)N1CCCC1` [Example 32, [3-Ethynyl-4-(pyrrolidine-1-carbonyl)-phenyl]-[(2R,6S)-10-hydroxy-6,11,11-trimethyl-1,2,5,6-tetrahydro-4H-2,6-methano-benzo[d]azocin-3-yl]-methanone] are within 1.5-fold of each other in IC50: 1270 nM for the first, 915 nM for the second.

Compared with `C[C@H]1[C@@H]2Cc3ccc(O)cc3[C@@]1(C)CCN2C(=O)c1ccc2nc[nH]c2c1` [Example 53, (3H-Benzoimidazol-5-yl)-[(2S,6S,11R)-8-hydroxy-6,11-dimethyl-1,2,5,6-tetrahydro-4H-2,6-methano-benzo[d]azocin-3-yl]-methanone], `CC1(C)[C@H]2Cc3ccc(O)cc3[C@]1(C)CCN2C(=O)c1ccc2nc[nH]c2c1` [Example 80, (3H-Benzoimidazol-5-yl)-[(2R,6S)-8-hydroxy-6,11,11-trimethyl-1,2,5,6-tetrahydro-4H-2,6-methano-benzo[d]azocin-3-yl]-methanone] is 8-fold lower in IC50: 321 nM for the first, 40 nM for the second. The second is the more potent here.

Compared with `COc1ccc2c(c1)C[C@H]1N(C(=O)c3ccc4nc[nH]c4c3)CC[C@]2(C)C1(C)C` [Example 74, (3H-Benzoimidazol-5-yl)-[(2R,6S)-9-methoxy-6,11,11-trimethyl-1,2,5,6-tetrahydro-4H-2,6-methano-benzo[d]azocin-3-yl]-methanone], `CCOC(=O)c1ccc2c(c1)CC1N(C(=O)c3ccc4nc[nH]c4c3)CCC2(C)C1(C)C` (stereo not drawn) [Example 97, 3-(1H-Benzoimidazole-5-carbonyl)-6,11,11-trimethyl-1,2,3,4,5,6-hexahydro-2,6-methano-benzo[d]azocine-9-carboxylic acid ethyl ester] is 16-fold higher in IC50: 69 nM for the first, 1130 nM for the second.

Compared with `CC1C2Cc3ccc(O)cc3C1(C)CCN2C(=O)c1ccccc1` (stereo not drawn) [Example 105, (8-Hydroxy-6,11-dimethyl-1,2,5,6-tetrahydro-4H-2,6-methano-benzo[d]azocin-3-yl)-phenyl-methanone], `Cn1nnc2cc3c(cc21)C[C@H]1N(C(=O)c2ccc4nc[nH]c4c2)CC[C@]3(C)C1(C)C` [Example 258, (3H-Benzoimidazol-5-yl)-[(6R,10S)-5,6,7,8,9,10-hexahydro-3,10,12,12-tetramethyl-6,10-methano-triazolo[4,5-i][3]benzazocin-7-yl]-methanone] is 40-fold lower in IC50: 1330 nM for the first, 33 nM for the second. The second is the more potent here.

Same assay, conditions: 1 hour at 37° C., pH 6.0, NADPH 200 μM, cortisone 80 nM, inhibition relative to carbenoxolone signal, read-out: 11β-HSD IC50

Going from `CC12CC(Cc3ccccc31)N(C(=O)c1ccc3nc[nH]c3c1)C2` (stereo not drawn) [Example 323, (3H-Benzoimidazol-5-yl)-(1-methyl-10-aza-tricyclo[7.2.1.0*2,7*]dodeca-2,4,6-trien-10-yl)-methanone] to `CC1C2c3ccc(O)cc3CC2N(C(=O)c2ccc3nc[nH]c3c2)CC1(C)C` (stereo not drawn) [Example 330, (3H-Benzoimidazol-5-yl)-(7-hydroxy-3,3,4-trimethyl-2,3,4,4a,9,9a-hexahydro-indeno[2,1-b]pyridin-1-yl)-methanone], the IC50 falls from 620 nM to 44 nM (14-fold).
